Results: patent publication US9261498B2, “Biomarker for sensitivity to mTOR inhibitor therapy in kidney cancer” (The Regents of the University of California, priority 2005, dated 2016)
Entries after “also recorded” stand apart in the source; their conditions may differ.

Tested on: HIF-1α, HIF-2α, GLUT-1, CA-IX
Assay: Immunoblot of HIF and target proteins in VHL knockdown cells expressing HIF-1α (P564A) / HIF-2α (P405A; P531A) mutants
Assay type: cell-based, human
Conditions: SN12C VHL knockdown cells with HIF mutants lacking 5'TOP, 24 hours
Procedure: FIGS. 4A-4C. Rescue of CCI-779 growth suppression by HIF-1-α and HIF-2-α prolyl hydcroxylase mutants. SN12C-CSCG-VHLshRNA cells stably infected with the prolyl hydroxylation defective cDNA mutants p-Babe-puro-HA-HIF-1α (P564A), HIF-2α (P405A; P531A) or backbone vector were treated with CCI-779 or vehicle and harvested 24 hours later. (a) Lysates were subjected to immunoblotting for HIF-1α, HIF-2α, GLUT-1, CA-IX, p-eIF4G, p-S6 and β-Actin as loading control. (b) SN12C-VHLshRNA, SN12C-VHLshRNA-HIF-1α mutant, SN12C-VHLshRNA-HIF-2α mutant cells (1×10^5) were cultured in 10% serum rich media, in the presence of vehicle, 1 or 10 nM of CCI-779 for 5 days. Cell growth was measured by cell counts (n=3). […]
Cells and xenograft tumors were lysed in ECB lysis buffer (see, e.g. Kondo et al., Cancer Cell 1, 237-46 (2002)) or high-detergent buffer (2% SDS), (see, e.g. Chen et al., Nat Med 10, 33-9 (2004)), respectively, supplemented with complete protease and phosphatase inhibitor cocktails (Calbiochem). […] Bound antibody was detected using enhanced chemiluminescence (ECL, Amersham). For VEGF ELISA quantification, cells were plated in 6 well plates (1×10^5 per well). […] Thirty-six hours later, VEGF ELISA (R&D Systems) was performed according to the manufacturer's instructions, using a Fisher Plate reader. […]

Structure (SMILES): CO[C@H]1C[C@@H]2CC[C@@H](C)[C@@](O)(O2)C(=O)C(=O)N2CCCC[C@H]2C(=O)O[C@H]([C@H](C)C[C@@H]2CC[C@@H](OC(=O)C(C)(CO)CO)[C@H](OC)C2)CC(=O)[C@H](C)/C=C(\C)[C@@H](O)[C@@H](OC)C(=O)[C@H](C)C[C@H](C)/C=C/C=C/C=C/1C [CCI-779]
- levels of HIF mutants and downstream targets GLUT-1 and CA-IX: stably expressed in the presence or absence of CCI-779; also recorded: not affected
